Test results taken from paper PMC10797628.
Residue numbers refer to the chain shown, from its start. Where two headings read alike, the source gives them in different places.

Experiments:
Y5.38F 5-HT1B receptor = biological target: T1, Y5.38F 5-HT1B receptor (Homo sapiens, UniProt P28222, Y208F); test: Radioligand binding, Y5.38F 5-HT1B; conditions: read-out: pKi 5-HT1B Receptor Y5.38F (converted)
T1 construct: host or cells: HEK293T

T7.39N 5-HT1D receptor [1] = biological target: T2, T7.39N 5-HT1D receptor (Homo sapiens, UniProt P28221, T342N); test: cAMP accumulation in HEK293T cells, T7.39N 5-HT1D; format: cell-based; set-up: host or cells: HEK293T; conditions: point-mutated receptor, 3 independent experiments, read-out: pEC50 5-HT1D Receptor N7.39T (converted)
Procedure: (§1) Briefly, cells transfected with the desired receptor construct and compounds were incubated in the dark for 90 min at 37 °C. After incubation, cAMP detection reagents were added, and TR-FRET was used to quantify the cAMP produced.
(§2) The functional activity of compounds was determined by stimulating cells expressing the desired receptor with FSK and test compound in parallel with 12 known concentrations of cAMP. The known concentrations of cAMP were used to create a standard curve for each experiment that was used to interpolate the unknown values of cAMP in wells with test compounds. […] The EC50 and EMAX values were determined using the “dose response – log[agonist] vs response (three parameter)” nonlinear regression model in Prism and transformed to pEC50 values, reported as mean ± SD.
(§3) Cell Type Receptor Cell Density [Forskolin] Incubation time
(§4) Summary of functional assay conditions at various 5-HT1 receptor point mutation constructs.

Y5.38F 5-HT1D receptor = Y5.38F 5-HT1D receptor (Homo sapiens, UniProt P28221, Y197F); test: cAMP accumulation in HEK293T cells, Y5.38F 5-HT1D; format: cell-based; set-up: host or cells: HEK293T; conditions: point-mutated receptor, 3 independent experiments, read-out: pEC50 5-HT1D Receptor Y5.38F (converted)
Procedure: as §1, §2, §4

T7.39N 5-HT1B receptor [2] = biological target: T3, T7.39N 5-HT1B receptor (Homo sapiens, UniProt P28222, T355N); test: Radioligand binding, T7.39N 5-HT1B
Procedure: (§5) 48 hours after transfection with the desired receptor construct, cells were isolated for saturation and competition binding assays as previously described.[47],[48],[57] Saturation and competition radioligand binding assays were conducted in an assay buffer consisting of 50 mM Tris HCl, 10 mM MgCl2, and 0.1 mM EDTA in filtered deionized water. […] Briefly, 5–10 μg of the receptor protein, as determined by a Thermo Fisher Pierce BCA protein assay kit, was incubated with 8 concentrations of radioligand in triplicate to determine total binding. […] Nonspecific binding was determined as above for saturation assays.
(§6) For radioligand binding data, nonspecific binding was subtracted from the total binding to get specific binding. Saturation binding data was fit to the “binding saturation-specific binding with hill slope” model. Competition binding data were fit to the “binding competition-one-site fit Ki” non-linear regression model and transformed to pKi values, reported as mean ± SD.
(§7) is 50 mM Tris HCl, 10 mM MgCl2 and 0.1 mM EDTA in filtered deionized water.

T7.39N 5-HT1D receptor [3] = biological target: T2, T7.39N 5-HT1D receptor; test: Radioligand binding, T7.39N 5-HT1D
Procedure: as §5, §6, §7

Y5.38A 5-HT1D receptor = Y5.38A 5-HT1D receptor (Homo sapiens, UniProt P28221, Y197A); test: Radioligand binding, Y5.38A 5-HT1D
Procedure: as §5, §6, §7

S5.42A 5-HT1D receptor = S5.42A 5-HT1D receptor (Homo sapiens, UniProt P28221, S201A); test: Radioligand binding, S5.42A 5-HT1D
Procedure: as §5, §6, §7

V45.52I 5-HT1B receptor = V45.52I 5-HT1B receptor (Homo sapiens, UniProt P28222, V201I); test: cAMP accumulation in HEK293T cells, V45.52I 5-HT1B; format: cell-based; set-up: mutated in house (Quikchange II) HTR01B0000; host or cells: HEK293T; conditions: point-mutated receptor, 3 independent experiments, read-out: pEC50 5-HT1B Receptor V45.52I (converted)
Procedure: as §1, §2, §3, §4

human 5-HT1A receptor = biological target: T4, human 5-HT1A receptor (Homo sapiens, UniProt P08908); test: Radioligand binding (saturation and competition), WT 5-HT1A
T4 construct: host or cells: HEK293T
T4 sequence (P08908 1-422): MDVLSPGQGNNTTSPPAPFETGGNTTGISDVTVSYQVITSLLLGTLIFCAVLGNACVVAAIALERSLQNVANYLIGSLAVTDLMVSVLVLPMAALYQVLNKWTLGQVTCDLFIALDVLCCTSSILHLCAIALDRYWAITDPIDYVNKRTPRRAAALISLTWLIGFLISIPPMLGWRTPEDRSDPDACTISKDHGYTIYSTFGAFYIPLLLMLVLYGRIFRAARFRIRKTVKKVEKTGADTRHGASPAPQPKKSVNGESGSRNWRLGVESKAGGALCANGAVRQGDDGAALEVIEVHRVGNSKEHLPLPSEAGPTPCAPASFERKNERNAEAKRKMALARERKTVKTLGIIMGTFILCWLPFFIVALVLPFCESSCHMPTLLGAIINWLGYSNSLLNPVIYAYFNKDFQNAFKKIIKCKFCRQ

T7.39N 5-HT1B receptor [4] = biological target: T3, T7.39N 5-HT1B receptor; test: cAMP accumulation in HEK293T cells, T7.39N 5-HT1B; format: cell-based; set-up: host or cells: HEK293T; conditions: point-mutated receptor, 3 independent experiments, read-out: pEC50 5-HT1B Receptor N7.39T (converted)
Procedure: as §1, §2, §4

N7.39T 5-HT1A receptor = biological target: T5, N7.39T 5-HT1A receptor (Homo sapiens, UniProt P08908, N386T); test: cAMP accumulation in HEK293T cells, N7.39T 5-HT1A; format: cell-based; set-up: mutated in house (Quikchange II) HTR01A0000; host or cells: HEK293T; conditions: point-mutated receptor, 3 independent experiments, read-out: pEC50 5-HT1A Receptor N7.39T (converted)
T5 sequence (P08908 1-422 N386T): T4 sequence (P08908 1-422) with N386T
Procedure: as §1, §2, §4

T3 sequence (P28222 whole entry T355N): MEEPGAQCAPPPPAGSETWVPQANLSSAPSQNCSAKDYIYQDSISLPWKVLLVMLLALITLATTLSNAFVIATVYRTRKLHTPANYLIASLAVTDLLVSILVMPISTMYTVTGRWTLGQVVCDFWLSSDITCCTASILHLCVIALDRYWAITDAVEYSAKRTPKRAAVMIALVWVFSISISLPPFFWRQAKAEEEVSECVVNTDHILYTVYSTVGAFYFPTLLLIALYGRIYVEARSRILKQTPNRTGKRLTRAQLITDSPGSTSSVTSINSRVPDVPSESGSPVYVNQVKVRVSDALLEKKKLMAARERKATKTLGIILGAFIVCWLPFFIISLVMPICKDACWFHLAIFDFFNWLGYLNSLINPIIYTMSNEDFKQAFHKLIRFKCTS
T2 sequence (P28221 whole entry T342N): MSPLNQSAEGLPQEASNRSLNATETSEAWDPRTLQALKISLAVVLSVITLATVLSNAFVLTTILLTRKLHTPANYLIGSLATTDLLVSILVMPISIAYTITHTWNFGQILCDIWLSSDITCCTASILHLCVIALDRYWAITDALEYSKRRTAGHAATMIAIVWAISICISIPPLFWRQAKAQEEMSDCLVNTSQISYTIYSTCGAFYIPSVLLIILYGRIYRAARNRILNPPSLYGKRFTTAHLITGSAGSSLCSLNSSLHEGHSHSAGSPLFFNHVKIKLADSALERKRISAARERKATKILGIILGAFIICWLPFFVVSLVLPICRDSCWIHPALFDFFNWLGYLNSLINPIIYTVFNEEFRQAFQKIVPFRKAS
T1 sequence (P28222 whole entry Y208F): as the sequence (P28222 whole entry T355N) above, with Y208F, N355T counted along it
Chain of Y5.38A 5-HT1D receptor (P28221 whole entry Y197A): as the sequence (P28221 whole entry T342N) above, with Y197A, N342T counted along it
Chain of Y5.38F 5-HT1D receptor (P28221 whole entry Y197F): as the sequence (P28221 whole entry T342N) above, with Y197F, N342T counted along it
Chain of S5.42A 5-HT1D receptor (P28221 whole entry S201A): as the sequence (P28221 whole entry T342N) above, with S201A, N342T counted along it
Chain of V45.52I 5-HT1B receptor (P28222 whole entry V201I): as the sequence (P28222 whole entry T355N) above, with V201I, N355T counted along it

Row | Ki (human 5-HT1A receptor; read-out: Affinity (pKi ± SD) 5-HT1A (converted)) [µM] | Compound | Ki (Y5.38F 5-HT1B receptor) [µM] | EC50 (T7.39N 5-HT1D receptor [1]) [µM] | EC50 (Y5.38F 5-HT1D receptor) [µM] | Ki (T7.39N 5-HT1B receptor [2]) [µM] | Ki (T7.39N 5-HT1D receptor [3]) [µM] | Ki (Y5.38A 5-HT1D receptor) [µM] | Ki (S5.42A 5-HT1D receptor) [µM] | EC50 (V45.52I 5-HT1B receptor) [µM] | Ki (human 5-HT1A receptor; Affinity (pKi ± SD) 5-HT1A, WT receptor, [^3H]5-CT competition, mean ± SD) [µM] | EC50 (T7.39N 5-HT1B receptor [4]) [µM] | EC50 (N7.39T 5-HT1A receptor) [µM]
1 |  | CN(C)[C@H]1CCc2c(cccc2-c2ccccc2F)C1 [(S)-FPT] | 0.00191 | 0.0141 | 0.00155 | 0.00741 | 0.0107 | 0.00107 | 0.00129 | 0.000776 |  |  | 
2 |  | CN(C)[C@H]1CCc2c(cccc2-c2cccc3ccccc23)C1 [(S)-NAP] | 0.00562 | 0.01 | 0.0112 | 0.00646 | 0.00107 | 0.0708 | 0.00117 | 0.224 | 0.0617 | 0.0372 | 0.347
3 | 0.00126 | Fc1ccccc1-c1cccc2c1CC[C@H](N1CCCC1)C2 [(S)-PFPT] | 0.0151 | 0.0186 | 0.24 | 0.00589 | 0.00417 | 0.0427 | 0.0417 | 0.0513 |  | 0.0195 | 0.0251
